Experimental findings from ChEMBL document CHEMBL1148456, “Structure-based design and synthesis of non-nucleoside, potent, and orally bioavailable adenosine deaminase inhibitors” (J Med Chem, 2004) are described below.

≈ marks a conversion by molar mass, not a printed value.

The species named for series [1] is Rattus norvegicus. In words: (§1) In vitro clearance in rat liver microsomes. It counts as ADME, Microsome. (In general: Microsomes from liver hold many membrane-bound enzymes, among them those of drug oxidation.)
Series [2] can be described thus: (§2) In vitro clearance in dog liver microsomes. Conditions: read-out: Clearance. It counts as ADME, Canis lupus familiaris, Microsome.
Series [3] can be described thus: In vitro clearance in human liver microsomes. The class given is ADME, Microsome. The note with it: read-out: Clearance.
The nature of series [4]: Solubility was determined. The class given is physicochemical.
Series [5] can be described thus: Maximum plasma concentration in rat after po administration. The class given is ADME, organism-based. Also on record: route oral.
Series [6] can be described thus: AUC in rat after po administration at a dose of 10 mg/kg. Also on record: dose 10 mg/kg, route oral. The note with it: plasma, read-out: AUC 0-24h. It counts as ADME, organism-based.
Series [7] has as its system Mus musculus. In words: Antitumor activity after administration (i.p.) in mice U937 cells at a dose of 0.025 mg/kg. The class given is functional, U-937. Conditions: route intraperitoneal.
The subject of series [8] is Mus musculus. In words: Antitumor activity after administration (i.p.) in mice U937 cells at a dose of 2.5 mg/kg. Conditions: route intraperitoneal.
Series [9] has as its system Mus musculus. The series is described as follows: Antitumor activity after administration (i.p.) in mice U937 cells at a dose of 0.25 mg/kg. The note with it: route intraperitoneal.
Series [10] concerns Mus musculus. In words: Antitumor activity after administration (p.o.) with U937 cells in mice at a dose of 10 mg/kg. The class given is functional, U-937. Conditions: route oral.
Series [11] relates to Mus musculus. In words: Antitumor activity after administration (p.o.) in mice U937 cells at a dose of 32 mg/kg once daily dosing (u.i.d.). The class given is functional, U-937. The note with it: route oral.
The nature of series [12]: as §1. It counts as ADME, Microsome. The note with it: read-out: Clearance.
The species entered for series [13] is Canis familiaris. Described as §2. It counts as ADME, Canis lupus familiaris, Microsome.
For series [14], the system named is Mus musculus. The series is described as follows: Antitumor activity after administration (p.o.) in mice U937 cells at a dose of 10 mg/kg twice daily dosing (b.i.d.). The class given is functional, U-937. The note with it: route oral.
Series [15] has as its system Mus musculus. In words: Antitumor activity after administration (p.o.) in mice U937 cells at a dose of 32 mg/kg twice daily dosing (b.i.d.). Conditions: route oral. It counts as functional, U-937.
A short description of series [16]: Oral bioavailability in rat (dose 10 mg/kg). The class given is ADME, organism-based. Conditions: in vivo.
The nature of series [17]: Half-life in rat after po administration at a dose of 10 mg/kg. It counts as ADME, organism-based. Also on record: dose 10 mg/kg, route oral. The note with it: in vivo.
Series [18] is described as follows: Oral bioavailability in dog (dose 10 mg/kg). The class given is ADME, organism-based, Canis lupus familiaris. The note with it: in vivo.
For series [19], the target named is T1, Adenosine deaminase (Homo sapiens) (UniProt P00813).
T1 sequence (whole entry): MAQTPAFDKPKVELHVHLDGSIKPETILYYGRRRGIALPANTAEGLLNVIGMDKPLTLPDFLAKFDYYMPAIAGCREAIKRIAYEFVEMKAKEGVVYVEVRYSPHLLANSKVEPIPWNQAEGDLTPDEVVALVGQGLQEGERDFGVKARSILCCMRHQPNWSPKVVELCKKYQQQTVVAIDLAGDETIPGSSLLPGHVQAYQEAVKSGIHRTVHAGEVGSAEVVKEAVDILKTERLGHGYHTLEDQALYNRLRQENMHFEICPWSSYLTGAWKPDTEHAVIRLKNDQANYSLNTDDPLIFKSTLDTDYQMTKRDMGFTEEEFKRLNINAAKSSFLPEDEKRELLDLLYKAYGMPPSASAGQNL
Conditions: Rattus norvegicus.
Description: In vivo anti-inflammatory activity against adenosine deaminase (ADA) in the adjuvant arthritis model in rat (p.o.)

The Solubility is the dissolved amount per volume that the medium holds. A high value points to a readily soluble substance. What is called Cmax is the highest concentration seen after dosing. As usually defined, the AUC is the area under the concentration-time curve, a measure of exposure. As to `Cn1c(CCC(=O)Nc2ccc3ccn(CC[C@H](CO)n4cnc(C(N)=O)c4)c3c2)nc2ccccc21`, in [1], the Clearance stood at 35 mL/min/kg. Besides, the CLint scaled stood at 97 mL/min/kg in series [2] and 123 mL/min/kg in [3]. Further, the Solubility in [4] was 4.2 µg/mL (≈ 8.41 µM). In addition, the Cmax in series [5] was under 100 ng/mL. Further, the AUC in [6] was under 100 ng·h/mL.
Consider `OC[C@H]1O[C@@H](n2cnc3c2N=CNC[C@H]3O)C[C@@H]1O` [PENTOSTATIN], for which the MST in series [7] amounted to 28.5 days; in series [8] it was 42.5 days; in series [9] it was 34 days.
Consider `Nc1ncnc2c1ncn2[C@@H]1O[C@H](CO)[C@@H](O)[C@@H]1O` [VIDARABINE], for which, in series [10], the MST was found to be 23.5 days.
Broadly, the bioavailability is dose-corrected exposure relative to a reference, in per cent. Usually half-life stands for the time needed for the level to fall by half in the phase considered. Low readings indicate fast loss, high ones slow loss. As for `C[C@H](O)[C@@H](CCOc1ccc2ccccc2c1)n1cnc(C(N)=O)c1`, the figures for the MST in [11], in series [14] and in [15] were 30 days, 30 days and 35.5 days, respectively. Besides, the values for the CLint scaled in series [12] and in series [3] were 79 mL/min/kg and 3.8 mL/min/kg, respectively. In [13], the Clearance came out at 11 mL/min/kg. In addition, the concentration in solution in series [4] (Solubility) came to 80 µg/mL (≈ 236 µM). The bioavailability worked out at 42% in series [16] and 91% in [18]. In series [17], this compound showed a half-life of 1.12 h. This compound yielded a Cmax in [5] of 970 ng/mL. The AUC in [6] was 1850 ng·h/mL.
As to `C[C@H](O)[C@@H](CCc1cccc(Cl)c1Cl)n1cnc(C(N)=O)c1`, the CLint scaled in series [12] was determined as 111 mL/min/kg; in series [3] it was 4.5 mL/min/kg. Further, in series [19], the ED30 was determined as 1.6 mg/kg. In addition, the Solubility in series [4] was 500 µg/mL (≈ 1460 µM). The bioavailability in series [16] came out at 44%; in [18] it was 43%. Also, the half-life in series [17] is 1.66 h. Besides, the AUC in series [6] was found to be 2110 ng·h/mL.
Take `C[C@H](O)[C@@H](CCc1cccc2ccccc12)n1cnc(C(N)=O)c1`: the CLint scaled was found to be 307 mL/min/kg in series [12] and 45 mL/min/kg in [3]. The compound also displayed a Solubility in series [4] of 481 µg/mL (≈ 1490 µM). For the same compound, the values for the bioavailability in series [16] and in series [18] were 30% and 38%, respectively. Moreover, in series [17], the half-life is 0.66 h. In addition, the AUC in [6] turned out to be 1370 ng·h/mL.
With `C[C@H](O)[C@@H](CCOc1ccc2ccccc2c1)n1cnc(C(N)=O)c1.Cl`, the MST in [11] came to 38 days; in [14], 34 days; in [15], 42.5 days.
